Legend:
[1] = system: rabbit of normal ocular tension; test: Test Example 2: effect of lowering ocular tension after instillation of test compound to rabbit of normal ocular tension; format: in vivo, Japanese white male rabbits; details: 0.1% (W/V), 50 μL instilled; for AUC: area under curve of time vs difference in ocular tension between treated eye and eye drop base eye, up to 480 minutes; for Emax: maximum difference in ocular tension between treated eye and eye drop base eye
Description: Compounds shown in Table 1 were used as test compounds. Each compound was dissolved in saline containing polysorbate 80 (hereinafter the saline will be referred to as “eye drop base A”) or in an aqueous solution of boric acid buffer (pH 7.0) containing polysorbate 80 (hereinafter the solution will be referred to as “eye drop base B”) (polysorbate 80 content of each base: 5 mg/mL), to thereby obtain a test solution. The amount of each compound in the resultant solution was 0.1% (W/V). The eye drop bases were employed as a control.
Japanese white male rabbits (Kitayama Labes Co., Ltd.) (weight: 2.1-3.2 kg) were employed in the test. The rabbits were retained in a box-type fixation apparatus and employed in the test.
The ocular tension of each rabbit was measured by use of Model 30 Classic Pneumatonometer (product of Mentor) without anesthesia. Before the ocular tension was measured, 0.4% oxybuprocaine hydrochloride (Benoxil 0.4% eye drop solution, product of Santen Pharmaceutical Co., Ltd.) was instilled to the eyes of each rabbit, to thereby anesthetize the surface of the cornea. The ocular tension of each rabbit was measured several times at regular intervals. After the ocular tension became stable, the ocular tension was measured three times, and the average value was employed as the ocular tension.
A 0.1% solution of each test compound (50 μL) was instilled to one eye of each of the respective rabbits, and simultaneously the eye drop base (50 μL) was instilled to the remaining eye. The ocular tensions of both eyes were measured 60 minutes before instillation of the test compound; 0 minute immediately before instillation; and 30, 60, 90, 120, 150, 180, 240, 300, 360, 420, and 480 minutes after instillation. Two to six rabbits were employed for each test compound. For control, the eye drop base was instilled to both eyes of each respective rabbit, and the ocular tension was measured in a manner similar to that described above.
For each test compound, the effect of lowering ocular tension was evaluated on the basis of the following values: the area under the curve of time versus change in difference between the ocular tension of the eye to which the test compound was instilled and that of the eye to which the eye drop base was instilled (hereinafter the area will be abbreviated as AUC (mmHg·min)); and the maximum value of difference between the ocular tension of the eye to which the test compound was instilled and that of the eye to which the eye drop base was instilled (hereinafter the value will be abbreviated as Emax (mmHg)).

[2] = system: ocular tension in rabbits; test: Test Example 1: ocular tension after instillation to rabbits (FIGS. 1 and 2); format: in vivo, New Zealand white male rabbits; details: 0.03% and 0.1% (W/V) in 15% aqueous dimethyl sulfoxide, 50 μL instilled once; 15-180 minutes after instillation; CGS-21680 0.1% (w/v)
Description: 2-(1-Octynyl)adenosine, 2-(3-hydroxy-1-propynyl)adenosine, and CGS-21680 [2-((4-(2-carboxyethyl)phenylethyl)amino)adenosine-5′-N-ethyluronamide] were used as test compounds. Each compound was dissolved in a 15% aqueous solution of dimethyl sulfoxide (hereinafter the solution will be referred to as an “eye drop base”), to thereby obtain a test solution. The amounts of 2-(1-octynyl)adenosine and 2-(3-hydroxy-1-propynyl)adenosine were 0.03% (W/V) and 0.1% (W/V), respectively. The amount of CGS-21680 in the resultant solution was 0.1% (w/v). The eye drop base was employed as a control.
New Zealand white male rabbits (Tokyo Jikken Dobutsu) (weight: 2.2-3.1 kg) were employed in the test. […]
The ocular tension of each rabbit was measured by use of an applanation pneumatonometer (Alcon, PTG) without anesthesia. Before the ocular tension was measured, 0.4% oxybuprocaine hydrochloride (Benoxil 0.4% eye drop, product of Santen Pharmaceutical Co., Ltd.) was instilled to the eyes of each rabbit, to thereby anesthetize the surface of the cornea. Before administration of drugs, the ocular tension of each rabbit was measured several times at 15-minute intervals until the ocular tension became stable. After the ocular tension became stable, the ocular tension was measured three times, and the average value was employed as the normal ocular tension. […]

[3] = Test Example 3: single oral dose toxicity in rats; details: both sexes, SD, in vivo, rat, observed for two weeks, maximum dose
Description: To six-week-old male and female SD rats (six for each group), 2-(1-octynyl)adenosine was administered orally at a single dose of 521, 729, 1020, 1429, or 2000 mg/kg.

[4] = Test Example 3: single oral dose toxicity in dogs; details: both sexes, beagle, in vivo, dog, observed for two weeks, maximum dose
Description: To nine-month-old male and female beagle dogs (two for each group), 2-(1-octynyl)adenosine was administered orally at a single dose of 50, 150, or 450 mg/kg.

[5] = eye drop base A (saline with polysorbate 80)
[6] = eye drop base B (boric acid buffer pH 7.0 with polysorbate 80)

| SMILES | AUC [1, 5] [mmHg.min] | Emax [1, 5] [mmHg] | AUC [1, 6] [mmHg.min] | Emax [1, 6] [mmHg] | further results |
| --- | --- | --- | --- | --- | --- |
| CCNC(=O)[C@H]1O[C@@H](n2cnc3c(N)nc(NCCc4ccc(CCC(=O)O)cc4)nc32)[C@H](O)[C@@H]1O [CGS-21680, 2-((4-(2-carboxyethyl)phenylethyl)amino)adenosine-5′-N-ethyluronamide, reference compound] | −508.1 | −2.5 |  |  |  |
| CCCCC#Cc1nc(N)c2ncn([C@@H]3O[C@H](CO)[C@@H](O)[C@H]3O)c2n1 [Compound 1, 2-(1-hexynyl)adenosine] |  |  | −1236.0 | −4.6 |  |
| CCCCCCC#Cc1nc(N)c2ncn([C@@H]3O[C@H](CO)[C@@H](O)[C@H]3O)c2n1 [Compound 2, 2-(1-octynyl)adenosine] | −1093.5 | −4.2 |  |  | effect of lowering ocular tension (ΔIOP) [2]: excellent effect of lowering ocular tension, as compared with CGS-21680; LD50 at 2 weeks [3]: ≥ 2000 mg/kg; LD50 at 2 weeks [4]: ≥ 450 mg/kg |
| Nc1nc(C#CCCCCN2C(=O)c3ccccc3C2=O)nc2c1ncn2[C@@H]1O[C@H](CO)[C@@H](O)[C@H]1O [Compound 3, 2-(6-phthalimidyl-1-hexynyl)adenosine] | −1471.0 | −6.3 |  |  |  |
| Nc1nc(C#CCO)nc2c1ncn2[C@@H]1O[C@H](CO)[C@@H](O)[C@H]1O [Compound 4, 2-(3-hydroxy-1-propynyl)adenosine] | −955.6 | −4.3 |  |  | effect of lowering ocular tension (ΔIOP) [2]: excellent effect of lowering ocular tension, as compared with CGS-21680 |
| Nc1nc(C#CC(O)c2ccccc2)nc2c1ncn2[C@@H]1O[C@H](CO)[C@@H](O)[C@H]1O (stereo partly drawn) [Compound 5, 2-(3-hydroxy-3-phenyl-1-propynyl)adenosine] | −1185.6 | −4.8 |  |  |  |
| CCOCC#Cc1nc(N)c2ncn([C@@H]3O[C@H](CO)[C@@H](O)[C@H]3O)c2n1 [Compound 6, 2-(3-ethoxy-1-propynyl)adenosine] | −1538.3 | −5.3 |  |  | melting point: 120 to 127 °C |
| CCCOCCC#Cc1nc(N)c2ncn([C@@H]3O[C@H](CO)[C@@H](O)[C@H]3O)c2n1 [Compound 7, 2-(4-propoxy-1-butynyl)adenosine] |  |  | −1828.5 | −4.9 |  |
| CCCCCCCCOCCC#Cc1nc(N)c2ncn([C@@H]3O[C@H](CO)[C@@H](O)[C@H]3O)c2n1 [Compound 8, 2-(4-octoxy-1-butynyl)adenosine] |  |  | −1683.0 | −5.4 |  |
| CCOCCCC#Cc1nc(N)c2ncn([C@@H]3O[C@H](CO)[C@@H](O)[C@H]3O)c2n1 [Compound 9, 2-(5-ethoxy-1-pentynyl)adenosine] |  |  | −1117.5 | −3.7 |  |
| Nc1nc(C#CCOC2CCCCC2)nc2c1ncn2[C@@H]1O[C@H](CO)[C@@H](O)[C@H]1O [Compound 10, 2-(3-cyclohexyloxy-1-propynyl)adenosine] | −945.9 | −4.3 |  |  |  |
| Nc1nc(C#CC2CCCC2)nc2c1ncn2[C@@H]1O[C@H](CO)[C@@H](O)[C@H]1O [Compound 11, 2-(2-cyclopentyl-1-ethynyl)adenosine] |  |  | −1532.7 | −4.4 |  |
| Nc1nc(C#CC2CCCCC2)nc2c1ncn2[C@@H]1O[C@H](CO)[C@@H](O)[C@H]1O [Compound 12, 2-(2-cyclohexyl-1-ethynyl)adenosine] |  |  | −1670.2 | −6.0 |  |
| Nc1nc(C#CCC2CCCC2)nc2c1ncn2[C@@H]1O[C@H](CO)[C@@H](O)[C@H]1O [Compound 13, 2-(3-cyclopentyl-1-propynyl)adenosine] |  |  | −1053.9 | −5.9 |  |
| Nc1nc(C#CCC2CCCCC2)nc2c1ncn2[C@@H]1O[C@H](CO)[C@@H](O)[C@H]1O [Compound 14, 2-(3-cyclohexyl-1-propynyl)adenosine] |  |  | −1053.2 | −4.0 |  |
| Nc1nc(C#CCCC2CCCC2)nc2c1ncn2[C@@H]1O[C@H](CO)[C@@H](O)[C@H]1O [Compound 15, 2-(4-cyclopentyl-1-butynyl)adenosine] |  |  | −1086.0 | −5.6 |  |
| CCCCC#Cc1nc(N)c2ncn([C@@H]3O[C@H](C(=O)NC)[C@@H](O)[C@H]3O)c2n1 [Compound 16, 2-(1-hexynyl)adenosine-4′-methylcarboxamide] | −1838.3 | −6.0 |  |  |  |
